According to the supplement of paper PMC10307832:

Key:
Assay in all cases: relative viability (nuclei count vs DMSO), 5 days (fraction); higher = more cells survive
Bicalutamide + OSI-027 = compound: CC(O)(CS(=O)(=O)c1ccc(F)cc1)C(=O)Nc1ccc(C#N)c(C(F)(F)F)c1 [Bicalutamide] + COc1cccc2cc(-c3nc([C@H]4CC[C@H](C(=O)O)CC4)n4ncnc(N)c34)[nH]c12 [OSI-027] (partner 0.5 µM)
How it was run: (§1)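 Cells from lung cancer lines were seeded into 1536-well plates and, one day later, dosed by pin tool. Treatments were either a single drug or a fixed dose of an anchor drug with five library-drug doses (not always all listed) in √10 steps. After 5 days, nuclei were stained in a one-step fixation (final 0.05% Triton X-100, 1% formaldehyde, 1 ug/ml Hoechst) and counted on 4× images, and relative viability is the treated-to-vehicle nuclei ratio, as the median of duplicate plates.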

Bicalutamide + Lapatinib = compound: CC(O)(CS(=O)(=O)c1ccc(F)cc1)C(=O)Nc1ccc(C#N)c(C(F)(F)F)c1 [Bicalutamide] + CS(=O)(=O)CCNCc1ccc(-c2ccc3ncnc(Nc4ccc(OCc5cccc(F)c5)c(Cl)c4)c3c2)o1 [Lapatinib] (partner 2 µM)
How it was run: as §1

[1] = compound: CC(O)(CS(=O)(=O)c1ccc(F)cc1)C(=O)Nc1ccc(C#N)c(C(F)(F)F)c1 [Bicalutamide] + Nc1nc2[nH]cc(CCc3ccc(C(=O)N[C@@H](CCC(=O)O)C(=O)O)cc3)c2c(=O)[nH]1 [Pemetrexed] (partner 0.2 µM)
How it was run: as §1

[2] = compound: C(C(=O)C(=O)O)Br [Bromopyruvate] + COc1cc2c(Oc3ccc(NC(=O)C4(C(=O)Nc5ccc(F)cc5)CC4)cc3F)ccnc2cc1OCCCN1CCOCC1 [Foretinib] (partner 0.25 µM)
How it was run: as §1

Row | Cell Line | relative viability (Bicalutamide + OSI-027; first compound 0.08 µM) | relative viability (Bicalutamide + OSI-027; first compound 0.253 µM) | relative viability (Bicalutamide + OSI-027; first compound 0.8 µM) | relative viability (Bicalutamide + OSI-027; first compound 2.53 µM) | relative viability (Bicalutamide + Lapatinib; first compound 0.08 µM) | relative viability (Bicalutamide + Lapatinib; first compound 0.253 µM) | relative viability (Bicalutamide + Lapatinib; first compound 0.8 µM) | relative viability (Bicalutamide + Lapatinib; first compound 2.53 µM) | relative viability ([1]; first compound 0.08 µM) | relative viability ([1]; first compound 0.253 µM) | relative viability ([1]; first compound 0.8 µM) | relative viability ([1]; first compound 2.53 µM) | relative viability ([2]; first compound 1 µM) | relative viability ([2]; first compound 3.162 µM) | relative viability ([2]; first compound 10 µM) | relative viability ([2]; first compound 31.62 µM) | relative viability ([2]; first compound 100 µM)
1 | HOP-62 | 0.927 | 0.844 | 0.956 | 0.785 | 1.13 | 0.995 | 1.05 | 1.07 | 0.371 | 0.289 | 0.277 | 0.327 | 1.12 | 1.17 | 1.12 | 0.95 | 0.815
2 | IA-LM | – | – | – | – | 0.969 | 0.958 | 1.02 | 0.711 | – | – | – | – | 1.12 | 1.19 | 1.07 | 1.17 | 0.914
3 | LC-2-ad | 0.962 | 0.718 | 0.885 | 0.684 | 0.851 | 0.873 | 1.08 | 0.957 | 0.268 | 0.256 | 0.275 | 0.267 | 0.922 | 0.99 | 1.01 | 0.914 | 0.988
4 | LCLC-97TM1 | 0.598 | 0.37 | 0.627 | 0.422 | 0.857 | 0.971 | 1.1 | 1 | 0.169 | 0.173 | 0.203 | 0.181 | 0.843 | 0.916 | 0.917 | 0.965 | 1.02
5 | LCLC-103H | 0.464 | 0.425 | 0.476 | 0.451 | – | – | – | – | 0.446 | 0.408 | 0.469 | 0.462 | 0.568 | 0.748 | 0.97 | 0.797 | 1.02
6 | LK-2 | 0.195 | 0.189 | 0.194 | 0.207 | 0.901 | 0.852 | 1.11 | 0.898 | 0.233 | 0.273 | 0.379 | 0.303 | 0.865 | 1.35 | 1.57 | 1.12 | 0.894
7 | LOU-NH91 | 0.768 | 0.659 | 0.736 | 0.726 | 0.816 | 0.638 | 0.856 | 0.752 | 0.429 | 0.379 | 0.39 | 0.378 | 0.945 | 0.903 | 0.999 | 0.92 | 0.984
8 | LU99A | 0.282 | 0.258 | 0.345 | 0.233 | 0.958 | 0.847 | 1.28 | 0.798 | 0.19 | 0.163 | 0.206 | 0.183 | 0.834 | 0.81 | 0.812 | 0.773 | 0.846
9 | LXF-289 | 0.816 | 0.725 | 0.851 | 0.672 | 0.92 | 0.845 | 0.991 | 0.877 | 0.929 | 0.815 | 0.916 | 0.949 | 1.02 | 0.997 | 0.965 | 1.01 | 1.04
10 | NCI-H23 | 0.721 | 0.544 | 0.605 | 0.495 | 1.07 | 0.987 | 1.38 | 0.843 | 0.52 | 0.528 | 0.854 | 0.578 | 0.895 | 0.851 | 0.983 | 0.885 | 0.296
11 | NCI-H322M | 0.6 | 0.524 | 0.568 | 0.474 | 0.576 | 0.602 | 0.664 | 0.572 | 0.594 | 0.553 | 0.635 | 0.709 | 0.978 | 0.964 | 1.02 | 0.99 | 1.05
12 | NCI-H358 | 0.903 | 0.651 | 1.01 | 0.67 | 0.471 | 0.475 | 0.524 | 0.51 | 0.174 | 0.17 | 0.218 | 0.176 | 0.764 | 0.71 | 0.761 | 0.598 | 0.653
13 | NCI-H441 | 0.689 | 0.585 | 0.669 | 0.534 | – | – | – | – | 0.311 | 0.281 | 0.284 | 0.272 | 1.08 | 1.02 | 0.986 | 0.984 | 0.947
14 | NCI-H460 | 0.772 | 0.601 | 1.04 | 0.545 | 1.08 | 0.881 | – | 0.972 | 0.0574 | 0.0589 | 0.0592 | 0.0687 | 0.928 | 1.01 | 1.15 | 1.02 | 1
15 | NCI-H522 | 0.726 | 0.685 | 0.775 | 0.641 | – | – | – | – | 0.923 | 0.854 | 1.22 | 0.979 | – | – | – | – | –
16 | NCI-H727 | 0.573 | 0.546 | 0.623 | 0.442 | 0.945 | 0.763 | 1.09 | 0.77 | – | – | – | – | 0.9 | 1.08 | 0.728 | 0.93 | 0.802
17 | NCI-H1299 | – | – | – | – | 0.92 | 0.966 | 0.971 | 0.929 | – | – | – | – | 1.16 | 1.13 | 1.16 | 1.14 | 1.09
18 | NCI-H1623 | 0.43 | 0.447 | 0.487 | 0.531 | – | – | – | – | – | – | – | – | 0.897 | 0.879 | 0.99 | 0.927 | 0.987
19 | NCI-H1648 | – | 0.299 | 0.29 | 0.225 | – | – | – | – | – | – | 0.745 | 0.774 | – | – | – | – | –
20 | NCI-H1703 | – | – | – | – | 1.16 | 1.03 | 1.18 | 0.643 | – | – | – | – | 0.327 | 0.397 | 0.364 | 0.367 | 0.356
21 | NCI-H1792 | 0.731 | 0.634 | 0.855 | 0.768 | 0.958 | 0.858 | 1.03 | 0.91 | 0.825 | 0.658 | 1.16 | 0.831 | – | – | – | – | –
22 | NCI-H2342 | 0.629 | 0.593 | 0.63 | 0.551 | – | – | – | – | 0.764 | 0.761 | 0.89 | 0.751 | 1.09 | 1.18 | 1.01 | 0.853 | 1.04
23 | SW 900 | 0.498 | 0.531 | 0.572 | 0.347 | – | – | – | – | 0.444 | 0.47 | 0.562 | 0.467 | 0.902 | 0.955 | 0.665 | 0.84 | 0.898
